Results on 1 molecule are retold here after ChEMBL document CHEMBL4814079, “Structure-Activity Relationship for the Picolinamide Antibacterials that Selectively Target Clostridioides difficile” (ACS Med Chem Lett, 2021).

A short description of data set [1]: Drug excretion in CD1 mouse feces at 10 mg/kg, po measured upto 8 hrs by LC-MS/MS analysis. To be noted: in vivo. Type of data set: ADME, organism-based.
The test system of the next data set is Lactobacillus gasseri. Nature of the data set: Antibacterial activity against gut Lactobacillus gasseri HM-664 assessed as reduction in bacterial growth measured after 48 hrs by CLSI based broth microdilution method. Type of data set: organism-based. The conditions noted are these: in vitro. Background: In broth dilution the organism is exposed to a series of concentrations in liquid medium.

Data set [2] is described as follows: Plasma concentration in CD1 mouse at 10 mg/kg, po measured upto 8 hrs by LC-MS/MS analysis. The format is ADME, organism-based. The conditions noted are these: in vivo, BLD = below limit of detection.
The nature of data set [3]: Ratio of drug excretion in CD-1 mouse feces to MIC for antibacterial activity against Clostridium difficile ATCC 43255. The format is toxicity. To be noted: in vivo.
Another data set has as its system Clostridioides difficile. Put plainly: Antibacterial activity against Clostridium difficile ATCC 43255 assessed as reduction in bacterial growth measured after 48 hrs by CLSI based broth microdilution method. Type of data set: functional.
For the next data set, the system named is Bifidobacterium longum. Nature of the data set: Antibacterial activity against gut Bifidobacterium longum HM-846 assessed as reduction in bacterial growth measured after 48 hrs by CLSI based broth microdilution method. The format is organism-based.
The next data set has as its system Enterococcus faecium. Put plainly: Antibacterial activity against Enterococcus faecium ATCC 19434 assessed as reduction in bacterial growth measured after 48 hrs by CLSI based broth microdilution method. The format is functional.
The test system of the next data set is Bacteroides fragilis. Put plainly: Antibacterial activity against gut Bacteroides fragilis HM-709 assessed as reduction in bacterial growth measured after 48 hrs by CLSI based broth microdilution method. The conditions noted are these: in vitro. Type of data set: organism-based.
Data set [4] can be described thus: Selectivity index, ratio of MIC of […] Staphylococcus aureus ATCC 29213 to MIC of Clostridium difficile ATCC 43255. Type of data set: functional.
A further data set deals with HeLa. Nature of the data set: Cytotoxicity against human HeLa cells assessed as reduction in cell viability incubated for 16 hrs by XTT assay. The format is cell-based. Background: Tetrazolium dyes change colour on reduction, which living cells bring about.
A short description of data set [5]: Antibacterial activity against gut Limosilactobacillus-reuteri HM-102 assessed as reduction in bacterial growth measured after 48 hrs by CLSI based broth microdilution method.
The next data set deals with Veillonella. Nature of the data set: Antibacterial activity against gut Veillonella sp HM-49 assessed as reduction in bacterial growth measured after 48 hrs by CLSI based broth microdilution method. The conditions noted are these: in vitro. Type of data set: organism-based.
A further data set relates to Staphylococcus aureus. Put plainly: Antibacterial activity against […] Staphylococcus aureus ATCC 29213 assessed as reduction in bacterial growth measured after 48 hrs by CLSI based broth microdilution method. Type of data set: functional.
A further data set relates to Corynebacterium. Put plainly: Antibacterial activity against gut Corynebacterium HM-784 assessed as reduction in bacterial growth measured after 48 hrs by CLSI based broth microdilution method. Type of data set: organism-based.
Another data set has as its system Eubacterium sp. Nature of the data set: Antibacterial activity against gut Eubacterium sp. HM-178 assessed as reduction in bacterial growth measured after 48 hrs by CLSI based broth microdilution method. Type of data set: organism-based.
A further data set relates to Fusobacterium nucleatum. Nature of the data set: Antibacterial activity against gut Fusobacterium nucleatum HM-992 assessed as reduction in bacterial growth measured after 48 hrs by CLSI based broth microdilution method. Type of data set: organism-based. The conditions noted are these: in vitro.

SMILES strings stand for the structures. In brackets after ≈: the same amount, converted by molar mass.

As usually defined, the IC50 is the concentration at which inhibition is half-maximal. Molecule `O=C(Nc1ncco1)c1cc(-c2ccc(Cl)c(Cl)c2)ccn1` yielded a Drug excretion in [1] of 0.79 µg/g. Also, the MIC was greater than 16 mg/L with Lactobacillus gasseri; 0.125 mg/L (≈ 0.374 µM) with Clostridioides difficile; greater than 16 mg/L with Bifidobacterium longum; no less than 128 mg/L in the data set on Enterococcus faecium; 4 mg/L (≈ 12 µM) with Bacteroides fragilis; 4 mg/L (≈ 12 µM) in data set [5]. The MIC with Veillonella was determined as 16 mg/L (≈ 47.9 µM); in the data set with Staphylococcus aureus, 128 mg/L (≈ 383 µM); with Corynebacterium it was 16 mg/L (≈ 47.9 µM); in the data set on Eubacterium sp., 8 mg/L (≈ 23.9 µM); in the data set on Fusobacterium nucleatum, 8 mg/L (≈ 23.9 µM). In addition, the Cp entry in data set [2] is “Bld”. Further, the figures for the Ratio in data set [3] and in [4] were 6.6 and 1024, respectively. The concentration for half-maximal inhibition (IC50) with HeLa came to 95.2 mg/L (≈ 285 µM).
